# Literature values, collected in patent US20150291756A1, “PROCESS FOR THE PRODUCTION OF RIGID FOAMED OBJECTS MADE OF POLYMER MATERIALS” (priority 2013, published 2015).
# Like-named read-outs stand apart in the source and are kept apart here.
# Key:
# [1] = recommended by OSHA, ACGIH, NIOSH
# [2] = test system: rats; settings: 4-hour exposure, decomposition residues of the diazocompound (TSMN for AIBN)
# [3] = test system: human; settings: human inhalative exposure; BASF Risk Assessment study
# [4] = substance as such
# [5] = toxicological studies
SMILES,occupational permissible exposure limit [1] [ppm],occupational permissible exposure limit ([1]; equivalent of the ppm value) [mg/m^3],Approximate Lethal Concentration Values by inhalation of its residues (ALC) [2] [mg/L],tentative Derived No Effect Level (DNEL) [3] [μg/m^3],EU Hazard Classification [4],carcinogenic and genotoxic activity [5]
"CC(C)(C#N)C(C)(C)C#N [TMSN, 2,2,3,3-tetramethylbutanedinitrile]",0.5,3,0.1,25,,
"CCC(C)(C#N)N=NC(C)(C#N)CC (stereo not shown) [AMBN, 2,2′-Azobis(2-methylbutanenitrile)]",,,8.7,,Harmful,
"NC(=O)N=NC(N)=O [ADC, Azodicarbonamide]",,,,,,carcinogenic and genotoxic activity
